The target in experiment [1] is T1, isolated kinase domain of the human FLT3 receptor (a.a. 571-993) (Homo sapiens, UniProt P36888).
T1 construct: isolated kinase domain of the human FLT3 receptor (a.a. 571-993)
T1 sequence (P36888 571-993): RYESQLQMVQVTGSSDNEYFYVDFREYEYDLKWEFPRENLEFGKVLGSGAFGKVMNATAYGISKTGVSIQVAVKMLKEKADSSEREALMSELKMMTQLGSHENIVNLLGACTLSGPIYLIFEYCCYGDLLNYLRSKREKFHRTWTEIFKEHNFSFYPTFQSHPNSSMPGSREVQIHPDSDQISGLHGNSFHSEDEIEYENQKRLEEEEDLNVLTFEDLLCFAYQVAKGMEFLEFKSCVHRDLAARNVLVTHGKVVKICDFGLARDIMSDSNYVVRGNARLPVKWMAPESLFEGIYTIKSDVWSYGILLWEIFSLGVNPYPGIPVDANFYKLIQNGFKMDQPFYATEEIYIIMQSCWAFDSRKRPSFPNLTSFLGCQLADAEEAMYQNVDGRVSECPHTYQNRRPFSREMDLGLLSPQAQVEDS
Put plainly: FLT3 Fluorescence Polarization Kinase Assay. To be noted: 10 nM FLT3 571-993, 150 uM ATP; uncertainty ±10%. It counts as biochemical. On the procedure: FLT3 Fluorescence Polarization Kinase Assay
To determine the activity of the FLT3 inhibitors of Formula I′ in an in vitro kinase assay, inhibition of the isolated kinase domain of the human FLT3 receptor (a.a. 571-993) was performed using the following fluorescence polarization (FP) protocol. The FLT3 FP assay utilizes the fluorescein-labeled phosphopeptide and the anti-phosphotyrosine antibody included in the Panvera Phospho-Tyrosine Kinase Kit (Green) supplied by Invitrogen. When FLT3 phosphorylates polyGlu4Tyr, the fluorescein-labeled phosphopeptide is displaced from the anti-phosphotyrosine antibody by the phosphorylated poly Glu4Tyr, thus decreasing the FP value. The FLT3 kinase reaction is incubated at room temperature for 30 minutes under the following conditions: 10 nM FLT3 571-993, 20 ug/mL poly Glu4Tyr, 150 uM ATP, 5 mM MgCl2, 1% compound in DMSO. The kinase reaction is stopped with the addition of EDTA. The fluorescein-labeled phosphopeptide and the anti-phosphotyrosine antibody are added and incubated for 30 minutes at room temperature.
All data points are an average of triplicate samples. Inhibition and IC50 data analysis was done with GraphPad Prism using a non-linear regression fit with a multiparamater, sigmoidal dose-response (variable slope) equation.

A further experiment relates to MV4-11 cells. The experiment is described as follows: Inhibition of MV4-11 cell proliferation (CellTiterGlo, 72 hours). It counts as cell-based. To be noted: Homo sapiens; 72 hours growth; uncertainty ±20%. The protocol: Inhibition Of MV4-11 and Baf3 Cell Proliferation
To assess the cellular potency of the FLT3 inhibitors of Formula I′, FLT3 specific growth inhibition was measured in the leukemic cell line MV4-11 (ATCC Number: CRL-9591). […] MV4-11 cells cannot grow and survive without active FLT3ITD.
To measure proliferation inhibition by test compounds, the luciferase based CellTiterGlo reagent (Promega), which quantifies total cell number based on total cellular ATP concentration, was used. Cells are plated at 10,000 cells per well in 100 ul of in RPMI media containing penn/strep, 10% FBS and 1 ng/ml GM-CSF or 1 ng/ml IL-3 for MV4-11 and Baf3 cells respectively.
Compound dilutions or 0.1% DMSO (vehicle control) are added to cells and the cells are allowed to grow for 72 hours at standard cell growth conditions (37° C., 5% CO2). For activity measurements in MV4-11 cells grown in 50% plasma, cells were plated at 10,000 cells per well in a 1:1 mixture of growth media and human plasma (final volume of 100 μL). To measure total cell growth an equal volume of CellTiterGlo reagent was added to each well, according to the manufacturer's instructions, and luminescence was quantified. Total cell growth was quantified as the difference in luminescent counts (relative light units, RLU) of cell number at Day 0 compared to total cell number at Day 3 (72 hours of growth and/or compound treatment). One hundred percent inhibition of growth is defined as an RLU equivalent to the Day 0 reading. Zero percent inhibition was defined as the RLU signal for the DMSO vehicle control at Day 3 of growth. All data points are an average of triplicate samples. […] Inhibition and IC50 data analysis was done with GraphPad Prism using a non-linear regression fit with a multiparamater, sigmoidal dose-response (variable slope) equation.
MV4-11 cells express the FLT3 internal tandem duplication mutation, and thus are entirely dependent upon FLT3 activity for growth. […] In contrast, the Baf3 cell proliferation is driven by the cytokine IL-3 and thus are used as a non-specific toxicity control for test compounds.

On to `CO/N=C/c1c(N)ncnc1N1CCC(OC(=O)Nc2ccc(OC(C)C)cc2)CC1` [Number 1, (4-Isopropoxy-phenyl)-carbamic acid 1-[6-amino-5-(methoxyimino-methyl)-pyrimidin-4-yl]-piperidin-4-yl ester], for which the IC50 was determined as 150 nM in experiment [1] and 740 nM with MV4-11 cells.

As to `CO/N=C/c1c(N)ncnc1N1CCC(NC(=O)Nc2ccc(N3CCOCC3)cc2)C1` (stereo not drawn) [Number 10, 1-{1-[6-Amino-5-(methoxyimino-methyl)-pyrimidin-4-yl]-pyrrolidin-3-yl}-3-(4-morpholin-4-yl-phenyl)-urea], the IC50 in experiment [1] worked out at 1100 nM; in the experiment on MV4-11 cells, 569 nM.

For `CO/N=C/c1c(N)ncnc1N1CCC(NC(=O)Nc2ccc(C3CCCCC3)cc2)CC1` [Number 22, 1-{1-[6-Amino-5-(methoxyimino-methyl)-pyrimidin-4-yl]-piperidin-4-yl}-3-(4-cyclohexyl-phenyl)-urea], the IC50 in experiment [1] was found to be 78 nM; in the experiment with MV4-11 cells it was 672 nM.

As to `CO/N=C/c1c(N)ncnc1N1CCC(NC(=O)Nc2ccc(C3CCCCC3)cc2)C1` (stereo not drawn) [Number 17, 1-{1-[6-Amino-5-(methoxyimino-methyl)-pyrimidin-4-yl]-pyrrolidin-3-yl}-3-(4-cyclohexyl-phenyl)-urea], the figures for the IC50 (in experiment [1]; with MV4-11 cells) were over 10000 nM and 386 nM, respectively.

With `CO/N=C/c1c(N)ncnc1N1CCC(NC(=O)Nc2ccc(N3CCCCC3)cc2)CC1` [Number 13, 1-{1-[6-Amino-5-(methoxyimino-methyl)-pyrimidin-4-yl]-piperidin-4-yl}-3-(4-piperidin-1-yl-phenyl)-urea], the IC50 stood at 310 nM in experiment [1] and 587 nM with MV4-11 cells.

With `CO/N=C/c1c(N)ncnc1N1CCC(NC(=O)Nc2ccc(OC3CCCC3)nc2)CC1` [Number 23, 1-{1-[6-Amino-5-(methoxyimino-methyl)-pyrimidin-4-yl]-piperidin-4-yl}-3-(6-cyclopentyloxy-pyridin-3-yl)-urea], the IC50 is 65 nM in experiment [1] and 651 nM in the experiment with MV4-11 cells.

Take `CO/N=C/c1c(N)ncnc1N1CCC(NC(=O)Nc2ccc(Cl)cc2)C1` (stereo not drawn) [Number 18, 1-{1-[6-Amino-5-(methoxyimino-methyl)-pyrimidin-4-yl]-pyrrolidin-3-yl}-3-(4-chloro-phenyl)-urea]: the figures for the IC50 (in experiment [1]; with MV4-11 cells) were 2970 nM and 735 nM, respectively.

For the compound `CCNC(=O)NCCO/N=C/c1c(N)ncnc1N1CCC(NC(=O)Nc2ccc(C(C)C)cc2)C1` (stereo not drawn) [Number 28, 1-[1-(6-Amino-5-{[2-(3-ethyl-ureido)-ethoxyimino]-methyl}-pyrimidin-4-yl)-pyrrolidin-3-yl]-3-(4-isopropyl-phenyl)-urea], the results for the IC50 (in experiment [1]; in the experiment on MV4-11 cells) were 2700 nM and 498 nM, respectively.

Take `CO/N=C/c1c(N)ncnc1N1CCC(NC(=O)Nc2ccc(Oc3ccccc3)cc2)CC1` [Number 26, 1-{1-[6-Amino-5-(methoxyimino-methyl)-pyrimidin-4-yl]-piperidin-4-yl}-3-(4-phenoxy-phenyl)-urea]: the IC50 in experiment [1] came out at 20 nM; with MV4-11 cells, 856 nM.

For `CO/N=C/c1c(N)ncnc1N1CCC(NC(=O)Nc2ccc(OC(C)C)cc2)CC1` [Number 12, 1-{1-[6-Amino-5-(methoxyimino-methyl)-pyrimidin-4-yl]-piperidin-4-yl}-3-(4-isopropoxy-phenyl)-urea], the IC50 in experiment [1] is 460 nM; with MV4-11 cells it was 672 nM.

For the compound `CC(C)c1ccc(NC(=O)NC2CCN(c3ncnc(N)c3/C=N/OCC(=O)N3CCOCC3)C2)cc1` (stereo not drawn) [Number 29, 1-(1-{6-Amino-5-[(2-morpholin-4-yl-2-oxo-ethoxyimino)-methyl]-pyrimidin-4-yl}-pyrrolidin-3-yl)-3-(4-isopropyl-phenyl)-urea], the IC50 in experiment [1] was found to be 1200 nM; in the experiment with MV4-11 cells, 856 nM.

Consider `CC(C)Oc1ccc(NC(=O)OC2CCN(c3ncnc(N)c3/C=N/OCCCN(C)C)CC2)cc1` [Number 4, (4-Isopropoxy-phenyl)-carbamic acid 1-{6-amino-5-[(3-dimethylamino-propoxyimino)-methyl]-pyrimidin-4-yl}-piperidin-4-yl ester], for which the IC50 in experiment [1] was determined as 300 nM; with MV4-11 cells it was 1400 nM.

For the compound `CO/N=C/c1c(N)ncnc1N1CCC(CC(=O)Nc2ccc(C(C)C)cc2)CC1` [Number 7, 2-{1-[6-Amino-5-(methoxyimino-methyl)-pyrimidin-4-yl]-piperidin-4-yl}-N-(4-isopropyl-phenyl)-acetamide], the IC50 amounted to 81 nM in experiment [1] and 208 nM with MV4-11 cells.

As to `CO/N=C/c1c(N)ncnc1N1CCC(NC(=O)Nc2ccc(OC3CCCC3)nc2)C1` (stereo not drawn) [Number 21, 1-{1-[6-Amino-5-(methoxyimino-methyl)-pyrimidin-4-yl]-pyrrolidin-3-yl}-3-(6-cyclopentyloxy-pyridin-3-yl)-urea], the IC50 in experiment [1] was determined as 4500 nM; in the experiment on MV4-11 cells it was 249 nM.

Turning to `CO/N=C/c1c(N)ncnc1N1CCC(OC(=O)Nc2ccc(C(C)C)cc2)CC1` [Number 5, (4-Isopropyl-phenyl)-carbamic acid 1-[6-amino-5-(methoxyimino-methyl)-pyrimidin-4-yl]-piperidin-4-yl ester], the IC50 was determined as 29 nM in experiment [1] and 11 nM with MV4-11 cells.

For the compound `CO/N=C/c1c(N)ncnc1N1CCC(NC(=O)Nc2ccc(N3CCCC3)cc2)C1` (stereo not drawn) [Number 20, 1-{1-[6-Amino-5-(methoxyimino-methyl)-pyrimidin-4-yl]-pyrrolidin-3-yl}-3-(4-pyrrolidin-1-yl-phenyl)-urea], the IC50 came out at 4500 nM in experiment [1] and 491 nM in the experiment with MV4-11 cells.

With `CO/N=C/c1c(N)ncnc1N1CCC(CC(=O)Nc2ccc(C(C)C)cc2)C1` (stereo not drawn) [Number 6, 2-{1-[6-Amino-5-(methoxyimino-methyl)-pyrimidin-4-yl]-pyrrolidin-3-yl}-N-(4-isopropyl-phenyl)-acetamide], the IC50 in experiment [1] is 16 nM; with MV4-11 cells, 31 nM.

As to `CO/N=C/c1c(N)ncnc1N1CCC(NC(=O)Nc2ccc(N3CCOCC3)cc2)CC1` [Number 14, 1-{1-[6-Amino-5-(methoxyimino-methyl)-pyrimidin-4-yl]-piperidin-4-yl}-3-(4-morpholin-4-yl-phenyl)-urea], the values for the IC50 (in experiment [1]; in the experiment on MV4-11 cells) were 880 nM and 1200 nM, respectively.

As for `CO/N=C/c1c(N)ncnc1N1CCC(NC(=O)Nc2ccc(OC3CCC3)nc2)CC1` [Number 15, 1-{1-[6-Amino-5-(methoxyimino-methyl)-pyrimidin-4-yl]-piperidin-4-yl}-3-(6-cyclobutoxy-pyridin-3-yl)-urea], the IC50 in experiment [1] amounted to 410 nM; in the experiment on MV4-11 cells, 578 nM.

For the compound `CO/N=C/c1c(N)ncnc1N1CCC(NC(=O)Nc2ccc(OC(C)C)cc2)C1` (stereo not drawn) [Number 8, 1-{1-[6-Amino-5-(methoxyimino-methyl)-pyrimidin-4-yl]-pyrrolidin-3-yl}-3-(4-isopropoxy-phenyl)-urea], the IC50 in experiment [1] worked out at 290 nM; with MV4-11 cells, 455 nM.

For the compound `CO/N=C/c1c(N)ncnc1N1CCC(NC(=O)Nc2ccc(OC3CCC3)nc2)C1` (stereo not drawn) [Number 11, 1-{1-[6-Amino-5-(methoxyimino-methyl)-pyrimidin-4-yl]-pyrrolidin-3-yl}-3-(6-cyclobutoxy-pyridin-3-yl)-urea], the IC50 stood at 160 nM in experiment [1] and 398 nM with MV4-11 cells.

The record behind these values is patent publication US20060281700A1, “SYNERGISTIC MODULATION OF FLT3 KINASE USING AMINOPYRIMIDINES KINASE MODULATORS” (priority 2005, published 2006).
